Publication PMC7136958, “Targeting the pregnane X receptor using microbial metabolite mimicry” (EMBO Molecular Medicine, 2020)
“And” between values parts separate entries of the source, which are not always exact repeats. Identical values can stand only once. Like-named read-outs stand apart in the source and are kept apart here.

Key:
[1] = tested on: mdr1a; test: PXR target gene expression in C57BL/6 mice after FKK6 gavage; type: in vivo, mouse; conditions: both sexes, C57BL/6J, mouse, 500 μM, 5 doses (60 h), individual mice
Experimental: (Scheer et al, 2010) were administered 10% DMSO (n = 3) or FKK6 (n = 3) in 3 or 5 doses, with each dose interval of 12 h. Each gavage dose volume was 100 μl. 2–4 h after the dosing period, mice were sacrificed, and tissues were harvested for further analysis. The mouse studies were performed three independent times over an 18‐month period. All purchased mice were acclimatized in the Einstein vivarium for ~ 2 weeks before experiments started. […]. The room temperature was maintained at 25 ± 2°C with 55 ± 5% humidity. All studies were approved by the Institute of Animal Studies at the Albert Einstein College of Medicine, INC (IACUC # 20160706, 20160701 and preceding protocols), and specific animal protocols were also approved by additional protocols (IACUC# 20170406, 20170504) and Animal Care and Use Review Office (ACURO) of the US Army Medical Research and Materiel Command (PR160167, W81XWH‐17‐1‐0479). […]
Mouse small, large intestine and liver samples were collected and total RNAs were […]
isolated. […] Each tissue PCR was […]
repeated in quadruplicate. The expression was normalized to internal control, GAPDH. ( b,d) The histograms show mean (95 %CI) values, c, mean (SD) and two way ANOVA followed with Tukey's post hoc test. The entire experiment was repeated n = 3 for reproducibility. The data shown is one representative experiment .

[2] = biological target: T1, PARP 1 (Homo sapiens, UniProt P09874); test: PARP assay (Reaction Biology); type: biochemical; conditions: replicates
T1 construct: purchased Reaction Biology Corp. (RBC) PAR-21-346
Experimental: (§1) The following […] assays (HDAC, SIRT1, PRMT1, PARP1, p300, pCAF) were performed by Reaction Biology Corp. FKK6 was screened at a single concentration of 10 μM in duplicate in two separate experiments. The appropriate controls for the individual assays are published. The overall […]
(§2) enzyme activity in the assay is reported as a % activity in DMSO control wells. Control IC50 […]
(§3) Briefly, for the Sirtuin (SIRT1) assay, human SIRT1 (GenBank
Accession No. NM012238) full -length N-terminal His-tag protein (MW 83.2 kDa) was purified after expression in E. coli. The reaction buffer was freshly prepared and constituted 50 mM Tris-HC l ( p H 8), 137 mM NaCl, 2.7 mM KCl, 1 mM MgCl2, and just before use, 1 mg/mL BSA and 1% DMSO was added. The substrate was a fluorogenic acetylated peptide of p53 residues 379-382 (RHKK (Ac)- AM C) . In th e multi-well format, the 2X enzyme was mixed with the reaction buffer followed by compound (in 100% DMSO) titration via Acoustic technology (Echo550; LabCyte Inc, Sunnyvale, CA) in the nanoliter range. The mixture was spun down and 2X substrate (including NAD+) was added to initiate the reaction at 30° C at 2h under seal. […] Fluorescence kinetic measurements were conducted for 1.5 h in 15 min intervals using Envision (Ex 360nm/Em 460nm). […] The compound mixture was placed on filter paper and washed with 0.75% phosphoric acid and radioactivity counted. […]

[3] = biological target: T2, PRMT1 (Homo sapiens, UniProt Q99873); test: Histone methyltransferase assay (Reaction Biology); type: biochemical; conditions: substrate Histone H4, replicates
T2 construct: purchased Reaction Biology Corp
Experimental: Software Tool and reprinted with permission from KINOME scan®, a division of DiscoveRx […]
as §1, §2, §3
Accession No. NM012238) full -length N-terminal His-tag protein (MW 83.2 kDa) was purified after expression in E. coli. The reaction buffer was freshly prepared and constituted 50 mM Tris-HC l ( p H 8), 137 mM NaCl, 2.7 mM KCl, 1 mM MgCl2, and just before use, 1 mg/mL BSA and 1% DMSO was added. The substrate was a fluorogenic acetylated peptide of p53 residues 379-382 (RHKK (Ac)- AM C) . In th e multi-well format, the 2X enzyme was mixed with the reaction buffer followed by compound (in 100% DMSO) titration via Acoustic technology (Echo550; LabCyte Inc, Sunnyvale, CA) in the nanoliter range. The mixture was spun down and 2X substrate (including NAD+) was added to initiate the reaction at 30° C at 2h under seal. […]

[4] = read-out: % Enzyme Activity to DMSO controls

T2 sequence (Q99873 whole entry, species assumed): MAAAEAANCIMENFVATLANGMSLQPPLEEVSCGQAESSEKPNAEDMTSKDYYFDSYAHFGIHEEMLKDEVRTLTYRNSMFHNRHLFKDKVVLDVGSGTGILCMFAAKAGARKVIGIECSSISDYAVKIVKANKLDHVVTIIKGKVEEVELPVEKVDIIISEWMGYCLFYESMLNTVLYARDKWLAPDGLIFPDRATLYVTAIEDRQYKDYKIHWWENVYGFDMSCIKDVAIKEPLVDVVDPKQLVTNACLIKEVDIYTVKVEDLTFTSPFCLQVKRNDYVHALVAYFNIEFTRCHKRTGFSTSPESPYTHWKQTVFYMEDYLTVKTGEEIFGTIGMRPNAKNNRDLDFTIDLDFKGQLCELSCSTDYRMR
T1 sequence (P09874 whole entry, species assumed): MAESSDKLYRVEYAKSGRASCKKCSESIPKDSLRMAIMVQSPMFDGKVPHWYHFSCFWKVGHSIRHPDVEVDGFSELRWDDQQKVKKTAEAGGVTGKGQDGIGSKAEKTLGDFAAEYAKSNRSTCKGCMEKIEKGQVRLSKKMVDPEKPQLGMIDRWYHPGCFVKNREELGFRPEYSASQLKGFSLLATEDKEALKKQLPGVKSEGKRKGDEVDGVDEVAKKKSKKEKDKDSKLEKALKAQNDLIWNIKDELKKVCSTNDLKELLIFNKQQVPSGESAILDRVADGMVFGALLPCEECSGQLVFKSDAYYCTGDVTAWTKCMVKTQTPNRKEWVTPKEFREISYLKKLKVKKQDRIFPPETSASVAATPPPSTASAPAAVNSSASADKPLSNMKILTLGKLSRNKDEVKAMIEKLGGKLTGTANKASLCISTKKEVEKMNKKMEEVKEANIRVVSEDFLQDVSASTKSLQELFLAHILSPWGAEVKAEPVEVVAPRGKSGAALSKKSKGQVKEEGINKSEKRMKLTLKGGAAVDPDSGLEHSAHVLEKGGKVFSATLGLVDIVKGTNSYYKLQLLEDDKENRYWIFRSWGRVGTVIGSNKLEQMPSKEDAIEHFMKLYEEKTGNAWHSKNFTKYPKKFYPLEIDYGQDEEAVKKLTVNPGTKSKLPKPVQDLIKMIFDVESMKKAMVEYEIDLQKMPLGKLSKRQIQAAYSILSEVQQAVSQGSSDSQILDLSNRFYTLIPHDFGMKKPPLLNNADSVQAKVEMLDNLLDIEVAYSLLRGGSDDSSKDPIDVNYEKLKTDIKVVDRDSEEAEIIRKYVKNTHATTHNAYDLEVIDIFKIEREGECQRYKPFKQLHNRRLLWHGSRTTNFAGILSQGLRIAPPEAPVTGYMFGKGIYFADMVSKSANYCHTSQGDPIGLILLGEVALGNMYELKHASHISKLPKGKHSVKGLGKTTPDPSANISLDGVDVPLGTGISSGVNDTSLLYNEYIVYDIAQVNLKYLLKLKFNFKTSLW

C#CCC(O)(c1ccncc1)c1cc2ccccc2n1S(=O)(=O)c1ccccc1 (stereo not shown) [FKK6]
fold induction at 60 h, 500 µM ([1]; in vivo, read-out: mdr1a fold induction, Liver): 1.81 | fold induction at 60 h, 500 µM ([1]; large intestine, oral, read-out: mdr1a fold induction, Large Intestine): 1.27 | fold induction at 60 h, 500 µM ([1]; liver, oral, read-out: mdr1a fold induction, Liver): 3.05 | % Enzyme Activity to DMSO controls ([2]; 10 μM): 98.25% and 91.38% and 91.03% | remaining activity at 10 µM [2, 4]: 99.2% | % Enzyme Activity to DMSO controls ([3]; 10 μM): 88.77% and 78.47% and 81.3% | remaining activity at 10 µM [3, 4]: 86.4%
